# Test results reported in US11234967B2, “Use of 3-[5-amino-4-(3-cyanobenzoyl)-pyrazol-1-yl]-n-cyclopropyl-4-methylbenzamide in the prevention or reduction of acute exacerbations of chronic obstructive pulmonary disease” (MEREO BIOPHARMA 1 LIMITED, priority 2017, dated 2022).
# How the values were obtained:
# [1] = test system: acute exacerbations of COPD; experiment: AETHER Phase 2 trial: occurrence of new acute exacerbations of COPD / re-hospitalisation out to 6 months; type: in vivo, human
# Source text: A Phase 2 trial (referred to as […]) was a double-blind, randomised, placebo-controlled clinical study investigating the use of BCT-197, on top of Standard of Care, for the treatment of patients with AECOPD. Standard of Care included the addition of steroids and/or antibiotics to a patient's chronic COPD medication and symptomatic bronchodilators. Following baseline assessment, 282 eligible patients were randomised to receive either one of two different dose regimens of BCT-197 or placebo (three doses over five days). The trial assessed adult patients ≥40 years with an acute exacerbation of COPD (as defined by increase in symptoms of cough, and/or sputum and/or breathlessness that required addition of antibiotics and or systemic corticosteroids to their regular treatment). The dosing regimen of 3-[5-amino-4-(3-cyanobenzoyl)-pyrazol-1-yl]-N-cyclopropyl-4-methylbenzamide or matching oral placebo administered are shown in Table 1. [table] BCT197 or placebo was added on top of the standard of care for the exacerbation. Exploratory long term outcomes after the acute treatment were included out to 6 months. […] Inclusion criteria for the study population were: • Males/females≥40 • On regular treatment for COPD (categories C and D by 2015 GOLD guidelines) • Presence of an active exacerbation of the ongoing COPD requiring hospitalisation for treatment: • At least one moderate or severe COPD exacerbation in the preceding 12 months • Smoking history of at least 10 pack years • FEV1<65% of the predicted normal value Exclusion criteria for the study population were: • Current diagnosis of asthma • Treatment with systemic corticosteroids or antibiotics in the prior 4 weeks. • Requiring intensive care unit treatment • Clinically significant cardiovascular condition of clinically significant ECG abnormality • Concurrent pneumonia, pulmonary embolus or pneumothorax
# [2] = test system: lymphocytes and neutrophils; experiment: AETHER Phase 2 trial: % lymphocytes and neutrophils in blood; type: in vivo, human
# Source text: (§1) A Phase 2 trial (referred to as AETHER) was a double-blind, randomised, placebo-controlled clinical study investigating the use of BCT-197, on top of Standard of Care, for the treatment of patients with AECOPD. Standard of Care included the addition of steroids and/or antibiotics to a patient's chronic COPD medication and symptomatic bronchodilators. Following baseline assessment, 282 eligible patients were randomised to receive either one of two different dose regimens of BCT-197 or placebo (three doses over five days).
# Systemic markers of adaptive and innate immunity are predictive of disease progression in COPD. […] Consequently, the effect of BCT197 to rebalance these biomarkers to a healthier phenotype, including beyond the period of systemic drug exposure, supports the potential benefit of the dosing regimens of the present invention.
# [3] = test system: high sensitivity C-Reactive Protein (hsCRP); experiment: AETHER Phase 2 trial: hsCRP blood concentration; type: in vivo, human
# Source text: as §1
# Inflammatory biomarkers are related to disease outcomes (Barnes and Celli, Eur Respir J, 2009, 33, pp 1165-1185; Bourdin et al., Eur Respir Rev, 2009, 18, pp 198-212) and are central to the proposed mechanism of action for BCT197. A further exploratory outcome was included out to 6 months, namely the inflammatory biomarker high sensitivity C-Reactive Protein (hsCRP) measured in patients. […] This is supportive that treatment in accordance with the invention leads to a reduction in re-hospitalisations and non-hospitalised exacerbations over this period through long term reduction in inflammation.
# After the acute treatment period, the hsCRP remains lower in those who had received BCT197 compared to placebo to Day 180 (p value<0.05) without additional dosing of BCT197, supporting a prolonged pharmacology effect on inflammation by BCT197.
# (§2) A further exploratory outcome included over the treatment period to Day 5 and BCT197 systemic exposure (to Day 14) were the inflammatory biomarkers high sensitivity C-Reactive Protein (hsCRP) and fibrinogen measured in patient blood. […] This was maximal at Day 7 (FIGS. 12 and 13) coincident with the highest improvement in FEV1 (FIG. 11) in response to BCT197 in the same patient population with <2% eosinophils.
# fibrinogen = experiment: AETHER Phase 2 trial: fibrinogen blood concentration; type: in vivo, human; conditions: high and low dose over 5 days; to Day 14; including <2% eosinophils; maximal at Day 7; FIG. 13
# Source text: as §1, with “either” for “either one of”, “days). The primary endpoint was a comparison of change in forced expiratory volume in 1 second (FEV1) from baseline to day 7 within each arm of the study.” for “days).”
# as §2
# AECOPD = conditions: single oral dose; cited from earlier work
# patients with AECOPD = experiment: AETHER Phase 2 trial: change in FEV1 from baseline to Day 7; type: in vivo, human; conditions: for FEV1 change from baseline to Day 7, sub-group with blood eosinophils <2%: on top of standard of care, compared to other sub-groups and placebo, FIGS. 10, 11
# Source text: as §1, with “either” for “either one of”, “days). The primary endpoint was a comparison of change in forced expiratory volume in 1 second (FEV1) from baseline to day 7 within each arm of the study.” for “days).”
# The trial assessed adult patients≥40 years with an acute exacerbation of COPD (as defined by increase in symptoms of cough, and/or sputum and/or breathlessness that required addition of antibiotics and or systemic corticosteroids to their regular treatment).
# Patients received one of two oral dosing regimens of 3-[5-amino-4-(3-cyanobenzoyl)-pyrazol-1-yl]-N-cyclopropyl-4-methylbenzamide or matching oral placebo administered according to the dosing schedules shown in Table 2.
# Inclusion criteria for the study population were: • Males/females≥40 • On regular treatment for COPD (categories C and D by 2015 GOLD guidelines) • Presence of an active exacerbation of the ongoing COPD requiring hospitalisation for treatment: • At least one moderate or severe COPD exacerbation in the preceding 12 months • Smoking history of at least 10 pack years • FEV1<65% of the predicted normal value […]
# Efficacy of treatment was measured by the primary endpoint of change in FEV1 from baseline (before treatment) to Day 7. Patients with COPD and low eosinophils (determined by blood percentages or absolute counts) are considered to be poorly responsive to treatment of acute exacerbations using known treatments.
smiles,measurement,setting,value
"Cc1ccc(C(=O)NC2CC2)cc1-n1ncc(C(=O)c2cccc(C#N)c2)c1N [BCT197, 3-[5-amino-4-(3-cyanobenzoyl)-pyrazol-1-yl]-N-cyclopropyl-4-methylbenzamide]",re-hospitalisation for COPD,"[1]; both high and low dose over 5 days, subsequent 6 months, high eosinophil sub group (Eos>2%), vs placebo, FIG. 3",able to reduce re-hospitalisation for COPD
same,reduction of occurrence of new exacerbations that require hospitalisation,"[1]; high dose (75/40/40 mg, days 1, 3, 5) on top of standard of care, subsequent 6 months, vs placebo, FIG. 1",40-60%
same,period of greatest effect on new exacerbations that require hospitalisation,"[1]; high dose, based on numerical difference to placebo and statistical significance",between 3 and 4 months
same,recurrent exacerbations that were not hospitalised,"[1]; short course of high dose, FIG. 2",reductions
same,change from baseline in % neutrophils during acute treatment,"[2]; high and low dose vs placebo, greater than placebo with dose-dependent effect, FIG. 8",rapid decrease in % neutrophils
same,change from baseline in % lymphocytes over the acute treatment period,"[2]; high and low dose vs placebo, to Day 14, FIG. 7",dose-dependent increase in lymphocytes
same,reduction in % neutrophils compared to placebo to Day 56,"[2]; without additional dosing, FIG. 9",remains greater
same,hsCRP for the subsequent 6 months versus placebo,"[3]; both high and low dose over 5 days, both high and low eosinophil sub group, FIGS. 4 and 5",sustained and durable reduction in hsCRP
same,hsCRP from baseline versus placebo,"[3]; high and low dose over 5 days, to Day 14, including <2% eosinophils, maximal at Day 7, FIG. 12",dose-dependent reduction
same,decrease in hsCRP to day 7 during acute treatment compared to placebo,"[3]; high dose, combined Eos>2% and <2%, p<0.05 at Day 3, 7 and 10, FIG. 6",significantly greater
same,hsCRP after the acute treatment period compared to placebo,"[3]; high dose, to Day 180 without additional dosing, p value<0.05, FIG. 6",remains lower
same,fibrinogen from baseline versus placebo,fibrinogen,dose-dependent reduction
same,recovery of AECOPD to the stable disease state,AECOPD,accelerates the recovery to the stable disease state
same,"FEV1: relative difference to standard of care, >2% eosinophil sub-population",patients with AECOPD; FIG. 10 right hand side,much less than in the low eosinophil group
same,"FEV1 change from baseline to Day 7, sub-group with blood eosinophils <2%",patients with AECOPD,substantial and consistent improvement in FEV1
same,"FEV1 change from baseline to Day 7, sub-group with blood eosinophils <2%",patients with AECOPD; listed as compound A,significant improvement
